Data from PubChem BioAssay (NCI).
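How tested: cells in 96-well plates exposed to compound for 48 hours at five concentrations. Definition used: TGI = concentration required for complete inhibition of growth.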

Columns and labels:
Assay in all cases: NCI anticancer screen, dose series, 48 h
HL-60(TB) leukemia = tested on: HL-60(TB) leukemia
SNB-19 CNS = tested on: SNB-19 CNS
OVCAR-8 ovarian = tested on: OVCAR-8 ovarian
SNB-75 CNS = tested on: SNB-75 CNS
COLO 205 colon = tested on: COLO 205 colon
UO-31 renal = tested on: UO-31 renal
UACC-62 melanoma = tested on: UACC-62 melanoma
HCT-15 colon = tested on: HCT-15 colon
NCI-H226 lung = tested on: NCI-H226 lung
HOP-92 NSCLC = tested on: HOP-92 NSCLC
OVCAR-5 ovarian = tested on: OVCAR-5 ovarian
K-562 leukemia = tested on: K-562 leukemia
SK-OV-3 ovarian = tested on: SK-OV-3 ovarian
HT29 colon = tested on: HT29 colon
DMS 273 small cell lung = tested on: DMS 273 small cell lung
IGROV1 ovarian = tested on: IGROV1 ovarian
CCRF-CEM leukemia = tested on: CCRF-CEM leukemia
DMS 114 small cell lung = tested on: DMS 114 small cell lung
HCC-2998 colon = tested on: HCC-2998 colon
MOLT-4 leukemia = tested on: MOLT-4 leukemia

Measured: TGI

Cc1cc2c(C(C)C)c(O)c(O)c(C=Nc3ccccc3)c2c(O)c1-c1c(C)cc2c(C(C)C)c(O)c(O)c(C=Nc3ccccc3)c2c1O
> 100 µM: all assays above

Cc1c(N=NN(C)C)cc[n+]([O-])c1C
> 100 µM: all assays above
